The results in this text go back to patent publication US12054509B2, “Antimicrobial compounds, compositions, and uses thereof” (Lakewood Amedex, Inc., priority 2017, dated 2024).

Data set [1] can be described thus: pH of 20 mg/mL (2%) aqueous solution. It is filed as physicochemical. As to conditions: 20 mg/mL in DI water. As for the experimental part: pH studies are conducted to show the pH of Nu-8 compared to Bisphosphocin® compounds Nu-2, Nu-4, and Nu-5. 20 mg/mL Nu-2 solution is prepared by diluting 2 mL of 250 mg/mL Nu-2 solution with 23 mL DI water. 20 mg/mL Nu-4 and Nu-5 solutions are prepared in the same way. 401.65 mg Nu-8 is weighed in a 5 mL volumetric flask and diluted with DI water to volume. 20 mg/mL Nu-8 solution is prepared by diluting 5 mL of 80.3 mg/mL Nu-8 solution with 15 mL DI water. The pH values of 4 Nu-2, Nu-4, Nu-5, and Nu-8 at 20 mg/mL are measured with a calibrated pH meter. Also shown in TABLE 2 is a summary of other physical properties of the compound of Formula (I) and reference compounds Nu-2, Nu-4, and Nu-5.

Data set [2] in a line: Pow (partition coefficient). It is filed as physicochemical.
Data set [3] concerns Escherichia coli (strain CFT073, TPPS 1041). Put plainly: Urinary tract infection model in BALB/c mice, initial efficacy (Example 10). The class given is in vivo. As to conditions: 50 mg/kg transurethral at 24 hr, 60 minutes post-treatment. The text has this:
Female BALB/c mice (20-22 g) ordered from Envigo are acclimated to housing conditions and handled in accordance with Animal Use Protocol (AUP) number TP-08. Animals are fed irradiated Teklad Global 29 18 Rodent Diet and water ad libitum. Mice are housed 6/cage in static cages with irradiated ⅛″ Teklad corn cobbedding 7902 inside bioBubble® clean rooms that provide H.E.P.A filtered air into the bubble environment at 100 complete air changes per hour. The environment is controlled to a temperature range of 74°±4° F. and a humidity range of 30-70%. All procedures carried out in this experiment are conducted in compliance with the laws, regulations, and guidelines of the National Institutes of Health and with the approval of the TransPharm Preclinical Solutions Animal Care and Use Committee.
A clinical isolate of Escherichia coli (strain CFT073, TPPS 1041) are procured from the University of Michigan.
The organism is grown overnight at 37° C. in ambient atmosphere on trypticase soy agar plates supplemented with 5% sheep blood cells. The culture is aseptically swabbed and transferred to tubes of trypticase soy broth. The optical density is determined at 600 nm. The culture is diluted to provide an inoculum of approximately 7.5 log10 CFU per mouse in a volume of 30 μL. Instillation of the bacterial challenge constituted time 0 hour for the study. Inoculum counts are estimated before inoculation by optical density and confirmed after inoculation by dilution and back counts.
One hour prior to bacterial challenge, water is removed from animal cages. […]
The primary endpoint used to assess progress of the infection is mean bacterial burden per gram of urinary bladder tissue. […] Colony forming units (CFU) are enumerated and the total bacterial burden per gram of urinary bladder tissue homogenate is calculated.
The geometric mean CFU, along with standard error of the mean (SEM), are calculated using Microsoft Excel and bar charts are prepared for the data using GraphPad Prism v. […]

In another data set the test system is E. coli ATCC 25922. In words: Bacterial cytological profiling (Example 6), E. coli.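 As to cell wall deformations: tested at 1 0.5 and 0.25 times MIC.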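 As to effect on cell envelope: tested at 1 0.5 and 0.25 times MIC.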 The class given is cell-based. As to conditions: for effect on cell envelope: BCP; for cell membrane permeability: buffered pH 4 or unbuffered LB; for DNA condensation: higher treatment concentrations, buffered pH 4; for cell wall deformations: unbuffered LB. As for the experimental part: (§1) This bacterial cytological profiling (BCP) study uses methods and materials described previously by Nonejuie, P., Burkart, M., Poglianoa, K., Pogiano, J. (2013). Bacterial cytological profiling rapidly identifies the cellular pathways targeted by antibacterial molecules. Proc. Natl. Acad. Sci. U.S.A. 110(40):16169-16174. doi: 10.1073/pnas.1311066110.
(§2) Wild type strains of E. coli ATCC 25922 or P. aeruginosa K2732 are grown in rich media (unbuffered 2× Lysogeny broth [LB]) at 30 C to an OD600˜0.4. These cultures are then split and each sample treated with the appropriate concentration of Nu-8 in unbuffered or buffered LB (final mixture OD600˜0.1). Cells exposed without Nu-8 are buffered to pH 4 with phosphoric acid.
(§3) The BCP is performed in LB media buffered to pH 4. The minimum inhibitory concentration (MIC) is measured for Nu-3, Nu-4, Nu-5, and Nu-8 against each bacterial strain. As one of ordinary skill in the art understands, minimum inhibitory concentrations are the lowest concentration of an antimicrobial that will inhibit the visible growth of a microorganism after overnight incubation. […] Cellular viability is assayed at three time points (5 minutes and 4 and 24 h following the onset of treatment).
(§4) For imaging E. coli, treated cells are stained with 1 μg/Ml FM4-64, 2 μg/mL DAPI, and 0.5 μM SYTOXGreen (Molecular Probes/Invitrogen). P. aeruginosa samples are stained 0.5 μM SYTOX Green, 28 μg/mL DAPI, and 4.5 μg/mL FM 4-64. Cells are transferred to an agarose pad (20% LB, 1% agarose) for imaging as described in Pogliano, J., Osborne, N., Sharp, M. D., Abanes-De Mello, A., Perez, A., Sun, Y.-L. and Pogliano, K. (1999), A vital stain for studying membrane dynamics in bacteria: a novel mechanism controlling septation during Bacillus subtilis sporulation. Molecular Microbiology, 31: 1149-1159. doi:10.1046/j.1365-2958.1999.01255.x.

For another data set, the system named is P. aeruginosa K2732. Put plainly: Bacterial cytological profiling (Example 6), P. aeruginosa.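 As to effect on cell envelope: tested at 1 0.5 and 0.25 times MIC.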 As to conditions: for effect on cell envelope: BCP; for cell membrane permeability: buffered pH 4 or unbuffered LB. The class given is cell-based. On the procedure: as §1, §2, §3, §4

With `COC1[C@@H](OP(=O)(O)OCCCCO)[C@@H](COP(=O)(O)OCCCCO)O[C@H]1n1ccc(=O)[nH]c1=O` (stereo partly shown) [Nu-2], the “pH (2% solution)” value in data set [1] is on record as 0.99. Moreover, the Pow in data set [2] was found to be 0.0407.

For gentamicin [reference compound], the “average bladder CFU burden” value in data set [3] is recorded as 6.1 log10 CFU.

On to `CCCCOP(=O)(O)OCCOCCOP(=O)(O)OCCCC` [Nu-5], for which the “pH (2% solution)” value in data set [1] is given as 0.93. Besides, the Pow in data set [2] was 0.0480. Besides, in the data set on E. coli ATCC 25922, the “effect on cell envelope” value is recorded as “affect the cell envelope”, the cell membrane permeability result is given as “increase cell membrane permeability”, the DNA condensation result was “causes DNA condensation” and the cell wall deformations result is reported as “cause cell wall deformations”. Moreover, in the data set with P. aeruginosa K2732, the “effect on cell envelope” value was “affect the cell envelope” and the cell membrane permeability result is given as “increase cell membrane permeability”.

For `CCCCOP(=O)(O)OC[C@H]1O[C@@H](n2cc(C)c(=O)[nH]c2=O)C[C@H]1OP(=O)(O)OCCCC` [Nu-4], in data set [1], the “pH (2% solution)” value is 0.94. Further, the Pow in data set [2] came out at 0.0592. In addition, in the data set on E. coli ATCC 25922, the “effect on cell envelope” value is on record as “affect the cell envelope”, the cell membrane permeability result was “increase cell membrane permeability”, the DNA condensation entry was “causes DNA condensation” and the cell wall deformations entry is listed as “cause cell wall deformations”. For the same compound, in the data set on P. aeruginosa K2732, the “effect on cell envelope” value is “affect the cell envelope” and the cell membrane permeability entry was “increase cell membrane permeability”.
